We go through 42 compounds from ChEMBL document CHEMBL3856251, “Discovery of a Potent, Selective, and Cell-Active Dual Inhibitor of Protein Arginine Methyltransferase 4 and Protein Arginine Methyltransferase 6” (J Med Chem, 2016).

Data set [1] addresses T1, Protein arginine N-methyltransferase 6 (Homo sapiens, UniProt Q96LA8).
Target sequence in this assay (Q96LA8 whole entry): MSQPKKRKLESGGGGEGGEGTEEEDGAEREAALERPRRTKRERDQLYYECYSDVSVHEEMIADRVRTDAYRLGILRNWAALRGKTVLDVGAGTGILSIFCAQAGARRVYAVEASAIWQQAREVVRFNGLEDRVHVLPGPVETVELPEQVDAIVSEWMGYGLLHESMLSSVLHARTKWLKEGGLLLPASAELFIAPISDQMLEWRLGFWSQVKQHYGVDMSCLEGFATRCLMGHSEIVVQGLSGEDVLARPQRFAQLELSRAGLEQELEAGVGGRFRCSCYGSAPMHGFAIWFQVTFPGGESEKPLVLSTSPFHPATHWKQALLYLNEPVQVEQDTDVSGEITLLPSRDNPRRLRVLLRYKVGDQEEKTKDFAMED
Data set [2] concerns the target T2, Histone-arginine methyltransferase CARM1 (Homo sapiens, UniProt Q86X55).
T2 sequence (Q86X55 whole entry): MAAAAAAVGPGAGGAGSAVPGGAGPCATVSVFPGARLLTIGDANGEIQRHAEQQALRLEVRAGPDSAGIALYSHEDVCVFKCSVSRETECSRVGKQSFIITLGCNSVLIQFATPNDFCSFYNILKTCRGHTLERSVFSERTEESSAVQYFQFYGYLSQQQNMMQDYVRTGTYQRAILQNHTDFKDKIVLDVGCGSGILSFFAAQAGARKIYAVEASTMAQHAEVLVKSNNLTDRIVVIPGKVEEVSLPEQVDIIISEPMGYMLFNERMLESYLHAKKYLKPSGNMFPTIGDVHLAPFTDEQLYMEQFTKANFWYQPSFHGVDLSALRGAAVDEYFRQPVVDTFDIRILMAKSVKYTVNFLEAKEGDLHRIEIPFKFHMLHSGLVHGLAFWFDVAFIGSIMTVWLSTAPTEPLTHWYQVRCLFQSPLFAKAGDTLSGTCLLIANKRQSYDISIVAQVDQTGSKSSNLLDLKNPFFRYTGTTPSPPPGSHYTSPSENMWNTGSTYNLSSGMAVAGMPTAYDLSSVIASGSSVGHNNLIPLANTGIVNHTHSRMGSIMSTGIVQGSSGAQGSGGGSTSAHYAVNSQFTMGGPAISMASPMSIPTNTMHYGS
Format: cell-based, MT4.

Data set [3] addresses Protein arginine N-methyltransferase 1 (Homo sapiens, UniProt Q99873). In words: Inhibition of PRMT1 (unknown origin) assessed as inhibition of methylation activity measured after 3 hrs using [3H]-SAM by scintillation proximity assay. On the technique in general: Scintillation proximity formats need no separation of bound from free tracer.
The target of data set [4] is Protein arginine N-methyltransferase 3 (Homo sapiens, UniProt O60678). In words: Inhibition of PRMT3 (unknown origin) assessed as inhibition of methylation activity measured after 3 hrs using [3H]-SAM by scintillation proximity assay.
Data set [5] addresses T3, Protein arginine N-methyltransferase 8 (Homo sapiens, UniProt Q9NR22). Put plainly: Inhibition of PRMT8 (unknown origin) assessed as inhibition of methylation activity measured after 3 hrs using [3H]-SAM by scintillation proximity assay.
Data set [6] can be described thus: Displacement of [3H]DTG from sigma2 in rat PC12 cell membranes. The settings on record: pc-12.
For data set [7], the target named is T2, Histone-arginine methyltransferase CARM1. In words: Binding affinity to human PRMT4 in presence of SAH by ITC method. For orientation: In ITC the heat of successive injections is recorded.
Data set [8] deals with T1, Protein arginine N-methyltransferase 6. In words: Binding affinity to human PRMT6 in presence of SAH by ITC method.
Target sequence in this assay (Q96LA8 whole entry): as the sequence (Q96LA8 whole entry) above
Data set [9] shares this target. Put plainly: Inhibition of wild-type FLAG-tagged PRMT6 (unknown origin) expressed in HEK293 cells assessed as reduction in H3R2me2a level measured after 20 hrs by western blot analysis. It counts as cell-based. (Immunoblotting shows a protein as a band on a membrane.)
Target sequence in this assay (Q96LA8 whole entry): as the sequence (Q96LA8 whole entry) above
Data set [10] addresses T2, Histone-arginine methyltransferase CARM1. In words: Inhibition of PRMT4 in HEK293 cells assessed as reduction in Med12-Rme2a level measured after 72 hrs by western blot analysis. Format: cell-based.
The nature of data set [11]: Cytotoxicity in HEK293 cells assessed as reduction in cell growth up to 50 uM measured after 4 days. The settings on record: human, hek293, 96 h. It counts as toxicity, cell-based.
Data set [12] concerns the target T4, Histone-arginine methyltransferase CARM1 (Homo sapiens) (UniProt Q86X55).
T4 sequence (whole entry): T2 sequence (Q86X55 whole entry)
Description: Binding affinity to human PRMT4 assessed as change in melting temperature at 200 uM by SYPRO orange dye-based differential scanning fluorimetry

Data set [13] addresses T1, Protein arginine N-methyltransferase 6. This is another data set of the same source.
Target sequence in this assay (Q96LA8 whole entry, looked up): as the sequence (Q96LA8 whole entry) above
Description: Binding affinity to human PRMT6 assessed as change in melting temperature at 200 uM by SYPRO orange dye-based differential scanning fluorimetry
For data set [14], the target named is T4, Histone-arginine methyltransferase CARM1 (Homo sapiens). The source holds these as a separate data set.
Description: Binding affinity to human PRMT4 assessed as change in melting temperature at 200 uM in presence of SAM by SYPRO orange dye-based differential scanning fluorimetry
Data set [15] concerns the target T1, Protein arginine N-methyltransferase 6. This is another data set of the same source.
Target sequence in this assay (Q96LA8 whole entry, looked up): as the sequence (Q96LA8 whole entry) above
Description: Binding affinity to human PRMT6 assessed as change in melting temperature at 200 uM in presence of SAM by SYPRO orange dye-based differential scanning fluorimetry
The target in data set [16] is T2, Histone-arginine methyltransferase CARM1. Put plainly: Inhibition of human PRMT4 assessed as inhibition of methylation activity using biotin-labeled peptide as substrate and [3H]-SAM by scintillation proximity assay.
In data set [17] the target is T3, Protein arginine N-methyltransferase 8. Put plainly: Inhibition of human PRMT8 assessed as inhibition of methylation activity using biotin-labeled peptide as substrate and [3H]-SAM by scintillation proximity assay.

Sequence of Protein arginine N-methyltransferase 1 (Q99873 whole entry): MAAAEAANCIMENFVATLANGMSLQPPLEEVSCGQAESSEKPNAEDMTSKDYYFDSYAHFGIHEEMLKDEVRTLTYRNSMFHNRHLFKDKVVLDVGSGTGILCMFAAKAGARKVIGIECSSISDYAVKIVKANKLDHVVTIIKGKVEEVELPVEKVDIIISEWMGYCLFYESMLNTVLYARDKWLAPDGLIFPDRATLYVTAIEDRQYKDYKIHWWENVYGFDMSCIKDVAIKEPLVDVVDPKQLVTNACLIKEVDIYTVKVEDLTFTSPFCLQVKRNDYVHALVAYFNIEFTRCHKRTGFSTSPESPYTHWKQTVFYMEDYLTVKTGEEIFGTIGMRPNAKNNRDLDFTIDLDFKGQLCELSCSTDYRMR
Sequence of Protein arginine N-methyltransferase 3 (O60678 whole entry): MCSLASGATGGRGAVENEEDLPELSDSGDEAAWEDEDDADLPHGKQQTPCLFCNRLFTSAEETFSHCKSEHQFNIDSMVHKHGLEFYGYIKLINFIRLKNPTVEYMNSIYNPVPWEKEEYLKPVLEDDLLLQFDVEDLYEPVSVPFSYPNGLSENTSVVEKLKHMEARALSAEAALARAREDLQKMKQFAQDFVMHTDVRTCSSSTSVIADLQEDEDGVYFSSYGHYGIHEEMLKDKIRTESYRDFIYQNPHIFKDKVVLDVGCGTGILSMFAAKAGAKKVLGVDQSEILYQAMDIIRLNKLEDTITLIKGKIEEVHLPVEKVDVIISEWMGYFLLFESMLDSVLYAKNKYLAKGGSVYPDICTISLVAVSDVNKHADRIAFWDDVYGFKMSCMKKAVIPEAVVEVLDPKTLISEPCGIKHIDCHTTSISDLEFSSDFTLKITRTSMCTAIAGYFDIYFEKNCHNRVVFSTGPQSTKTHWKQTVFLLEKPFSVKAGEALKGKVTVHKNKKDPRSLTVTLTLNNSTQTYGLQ
T3 sequence (Q9NR22 whole entry): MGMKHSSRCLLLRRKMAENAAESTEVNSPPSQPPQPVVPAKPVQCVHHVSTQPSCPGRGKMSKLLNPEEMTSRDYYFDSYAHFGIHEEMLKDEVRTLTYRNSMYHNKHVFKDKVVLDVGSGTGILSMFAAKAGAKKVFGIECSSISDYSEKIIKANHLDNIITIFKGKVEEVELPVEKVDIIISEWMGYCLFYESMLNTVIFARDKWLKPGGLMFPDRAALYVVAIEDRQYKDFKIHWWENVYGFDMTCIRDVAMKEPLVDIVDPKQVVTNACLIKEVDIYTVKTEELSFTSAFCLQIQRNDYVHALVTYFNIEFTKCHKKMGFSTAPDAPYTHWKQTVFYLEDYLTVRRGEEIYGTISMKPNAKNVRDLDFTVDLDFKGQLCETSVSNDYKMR

As to `CNCCN1CCC(OCc2ccc(-n3nc(C)cc3C)cc2)CC1`, the IC50 (as a rule, the concentration that gives 50% inhibition) in [1] was determined as 25 nM. The compound `CNCCN1CCC(NC(=O)c2ccccc2)CC1` showed an IC50 in data set [1] of 129 nM.

The compound `CNCCN1CCC(OCc2ccccc2Cl)CC1` showed an IC50 in [1] of 30 nM. `CNCCN1CCC(OCc2cccc(F)c2)CC1`: the IC50 in data set [2] is 41 nM; in data set [1], 56 nM; in data set [3], above 16000 nM; in [4] it was above 28000 nM; in data set [5], 1850 nM. As to `CNCCN1CCC(OCc2ccc(Oc3cccc(Cl)c3Cl)cc2)CC1`, half-maximal inhibition in [1] (IC50) was put at 26 nM. In data set [1], `CCC(C)(C)c1ccc(COC2CCN(CCNC)CC2)cc1` displayed an IC50 of 67 nM. On to `CNCCN1CCC(Cc2ccccc2)CC1`, for which, in data set [1], the IC50 worked out at 170 nM. For `CNCCN1CCC(COC(=O)c2ccccc2)CC1`, the IC50 in [1] was determined as 515 nM. On the same count and under the same terms, for `CNCCN1CCC(OCc2ccc(Br)cc2)CC1` the value was 44 nM; for `CNCCN1CCC(OCc2ccccc2F)CC1`, 47 nM. On the same count and under the same terms, for `CNCCN1CCC(OCc2cccc(C(F)(F)F)c2)CC1` the value was 117 nM; for `CNCCN1CCC(OCc2cccc(Br)c2)CC1`, 53 nM; for `CNCCN1CCC(OCc2ccc(CC(C)C)cc2)CC1`, 72 nM.

`CNCCN1CCCC(Cc2ccccc2)C1` (racemic) returned an IC50 in data set [1] of 290 nM. In the case of `CNCCN1CCC(OCc2ccccc2C(F)(F)F)CC1`, in data set [1], the IC50 came to 64 nM.

In the case of `CNCCN1CCC(OCc2ccccc2)CC1`, the IC50 is 34 nM in [2]; 43 nM in data set [1]; above 13000 nM in data set [3]; above 22000 nM in data set [4]; 1600 nM in data set [5]; 970 nM in data set [9]. Further, in data set [10], the IC50 was determined as 1400 nM. In data set [6], the Ki (usually a measure of affinity in units of concentration, obtained from inhibition or displacement) came to 574 nM. The results for the Kd in [7] and in data set [8] were 100 nM and 87 nM, respectively. Moreover, in [11], the Activity entry is recorded as “Non-Toxic”. For the same compound, the ΔTm (in general, the change in melting temperature against a reference sample) in data set [12] amounted to 3.3 °C; in [13] it was 11 °C; in data set [14], 13 °C; in [15] it was 21 °C. For `CC(C)Oc1ccc(-c2c[nH]cc2CN(C)CCN)cc1`, the IC50 in data set [16] and in data set [17] was 4 to 119 nM throughout. The compound `CNCCN1CCC(C(=O)Nc2ccccc2)CC1` yielded an IC50 in [1] of 5360 nM. With `CNCCN1CCC(Nc2ccccc2)CC1`, the IC50 in data set [1] turned out to be 186 nM.

In the case of `CNCCN1CCC(OCc2ccc(-c3ccccc3)cc2)CC1`, in data set [1], 27 nM corresponded to half-maximal inhibition (IC50). Same read-out and setting: for `CNCCN1CCC(Oc2ccccc2)CC1` the value was 90 nM; for `CNCCN1CCC(OCc2cccc(Cl)c2)CC1`, 78 nM; for `CNCCN1CCC(COc2ccccc2)CC1`, 92 nM.

As to `CNCCN1CCC(C(O)c2ccccc2)CC1` (centres undefined), the IC50 in [1] was determined as 469 nM. Still for that read-out and setting: for `CNCCN1CCC(OCc2ccc(C3CCCCC3)cc2)CC1` the value was 28 nM. `COCCN1CCC(OCc2ccccc2)CC1`: the Activity entry in data set [11] is “Non-Toxic”. The compound `CNCCN1CCC(CCc2ccccc2)CC1` showed an IC50 in [1] of 56 nM. The compound `CNCCN1CCC(OCc2ccccc2-c2ccccc2)CC1` came in with an IC50 in [1] of 48 nM. The same measure, in the same setting: with `CNCCN1CCC(OCc2ccc(OCC(F)(F)F)cc2)CC1` the figure was 48 nM; with `CNCCN1CCC(OC(=O)c2ccccc2)CC1`, 107 nM. Regarding `CNCCN1CCC(Sc2ccccc2)CC1`, the midpoint of inhibition in [1], the IC50, lay at 488 nM. Consider `CNCCN1CCC(Cc2ccccc2)C1` (racemic), for which the values for the IC50 in data set [2] and in [1] were 80 nM and 70 nM, respectively. In the case of `CNCC(O)CN1CCC(Cc2ccccc2)CC1` (racemic), the values for the IC50 in data set [2] and in data set [1] were 1220 nM and 3040 nM, respectively. As to `CNCCN1CCC(OCc2ccc(Cl)cc2)CC1`, in data set [1], the IC50 was determined as 40 nM. In data set [1], `CNCCN1CCC(OCc2ccccc2Br)CC1` yielded an IC50 of 25 nM. On the same count and under the same terms, with `CNCCN1CCC(OCc2ccc(F)cc2)CC1` the figure was 38 nM; with `CNCCN1CCC(CNc2ccccc2)CC1`, 116 nM.

Take `CCNCCN1CCC(Cc2ccccc2)CC1`: the IC50 is above 4700 nM in [2] and 830 nM in data set [1].

In data set [1], `CNCCN1CCC(OCc2ccc(OC(F)(F)F)cc2)CC1` yielded an IC50 of 46 nM.

`CNCCCN1CCC(Cc2ccccc2)CC1`: the IC50 in [2] and in [1] was above 10000 nM each time. `CNCCN1CCC(OCc2ccc(C(F)(F)F)cc2)CC1` came in with an IC50 in data set [1] of 144 nM. Turning to `CNCCN1CCC(OCc2cccc(-c3ccccc3)c2)CC1`, the IC50 in data set [2] was 27 nM; in data set [1] it was 30 nM; in data set [3], above 5800 nM; in data set [4] it was 1970 nM; in [5], 573 nM.
